The source of these data is ChEMBL document CHEMBL3217741, “Synthesis of 1,4-triazole linked zanamivir dimers as highly potent inhibitors of influenza A and B” (Medchemcomm, 2013).

For the assay, the system named is Influenza B virus. Description: microbe, parasite or virus in culture. To be noted: B/Harbin/07/94, MDCK, 72 h.
Description: Antiviral activity against Influenza B virus (B/Harbin/07/94) infected in MDCK cells assessed as reduction of virus-induced cytopathic effect after 72 hrs by MTT assay
As a reminder, the EC50 is the concentration at which the effect is half-maximal. A low value points to higher potency in that assay. For `CC(=O)N[C@H]1[C@H]([C@H](OC(=O)NCCCCCCCn2cc(CCCCNC(=O)O[C@@H]([C@@H]3OC(C(=O)O)=C[C@H](NC(=N)N)[C@H]3NC(C)=O)[C@H](O)CO)nn2)[C@H](O)CO)OC(C(=O)O)=C[C@@H]1NC(=N)N`, the concentration giving a half-maximal response (EC50) was determined as 0.32 nM.

In the case of `CC(=O)N[C@H]1[C@H]([C@H](OC(=O)NCCCCCCCCc2cn(CCCCCCCNC(=O)O[C@@H]([C@@H]3OC(C(=O)O)=C[C@H](NC(=N)N)[C@H]3NC(C)=O)[C@H](O)CO)nn2)[C@H](O)CO)OC(C(=O)O)=C[C@@H]1NC(=N)N`, a half-maximal effect (EC50) was put at 0.39 nM. This EC50 and that of the compound before are within 1.5-fold of each other. To `CC(=O)N[C@H]1[C@H]([C@H](OC(=O)NCCCn2cc(CCCc3cn(CCCNC(=O)O[C@@H]([C@@H]4OC(C(=O)O)=C[C@H](NC(=N)N)[C@H]4NC(C)=O)[C@H](O)CO)nn3)nn2)[C@H](O)CO)OC(C(=O)O)=C[C@@H]1NC(=N)N` belongs 0.65 nM; to `CC(=O)N[C@H]1[C@H]([C@H](OC(=O)NCCCCCn2cc(CCCCCc3cn(CCCCCNC(=O)O[C@@H]([C@@H]4OC(C(=O)O)=C[C@H](NC(=N)N)[C@H]4NC(C)=O)[C@H](O)CO)nn3)nn2)[C@H](O)CO)OC(C(=O)O)=C[C@@H]1NC(=N)N`, 0.88 nM. The result for `CC(=O)N[C@H]1[C@H]([C@H](OC(=O)NCCCn2cc(CCNC(=O)O[C@@H]([C@@H]3OC(C(=O)O)=C[C@H](NC(=N)N)[C@H]3NC(C)=O)[C@H](O)CO)nn2)[C@H](O)CO)OC(C(=O)O)=C[C@@H]1NC(=N)N` reads 0.51 nM; that for `CC(=O)N[C@H]1[C@H]([C@H](OC(=O)NCCCCc2cn(CCCNC(=O)O[C@@H]([C@@H]3OC(C(=O)O)=C[C@H](NC(=N)N)[C@H]3NC(C)=O)[C@H](O)CO)nn2)[C@H](O)CO)OC(C(=O)O)=C[C@@H]1NC(=N)N`, 0.43 nM. With `CC(=O)N[C@H]1[C@H]([C@H](OC(=O)NCCCCCn2cc(CCCCNC(=O)O[C@@H]([C@@H]3OC(C(=O)O)=C[C@H](NC(=N)N)[C@H]3NC(C)=O)[C@H](O)CO)nn2)[C@H](O)CO)OC(C(=O)O)=C[C@@H]1NC(=N)N`, the EC50 stood at 0.79 nM. The result for `CCOC(=O)C1=C[C@@H](OC(CC)CC)[C@H](NC(C)=O)[C@@H](N)C1` [OSELTAMIVIR] reads 583 nM. Take `CC(=O)N[C@H]1[C@H]([C@H](O)[C@H](O)CO)OC(C(=O)O)=C[C@@H]1NC(=N)N` [ZANAMIVIR]: the concentration for a half-maximal effect (EC50) amounted to 149 nM.
